Laboratory results: PubChem BioAssay (NCI)
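Cultured in 96-well plates, cells were exposed to test compound for 48 hours across five concentrations. The concentration for 50% growth inhibition is given as GI50. TGI marks complete inhibition of growth.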

Key:
Assay in all cases: growth of human tumour cells (NCI), 48 h
HCC-2998 colon = tested on: HCC-2998 colon
HOP-92 NSCLC = tested on: HOP-92 NSCLC
OVCAR-8 ovarian = tested on: OVCAR-8 ovarian
EKVX NSCLC = tested on: EKVX NSCLC
UACC-62 melanoma = tested on: UACC-62 melanoma
KM12 colon = tested on: KM12 colon
SK-MEL-5 melanoma = tested on: SK-MEL-5 melanoma
HL-60(TB) leukemia = tested on: HL-60(TB) leukemia
MALME-3M melanoma = tested on: MALME-3M melanoma
UO-31 renal = tested on: UO-31 renal

SMILES | TGI (HCC-2998 colon) [µM] | TGI (HOP-92 NSCLC) [µM] | TGI (OVCAR-8 ovarian) [µM] | TGI (EKVX NSCLC) [µM] | TGI (UACC-62 melanoma) [µM] | TGI (KM12 colon) [µM] | TGI (SK-MEL-5 melanoma) [µM] | TGI (HL-60(TB) leukemia) [µM] | TGI (MALME-3M melanoma) [µM] | TGI (UO-31 renal) [µM] | GI50 (HCC-2998 colon) [µM] | GI50 (HOP-92 NSCLC) [µM] | GI50 (OVCAR-8 ovarian) [µM] | GI50 (EKVX NSCLC) [µM] | GI50 (UACC-62 melanoma) [µM] | GI50 (KM12 colon) [µM] | GI50 (UO-31 renal) [µM] | GI50 (SK-MEL-5 melanoma) [µM] | GI50 (MALME-3M melanoma) [µM] | GI50 (HL-60(TB) leukemia) [µM]
Cc1cc(=O)oc2cc(OCc3nc4ccccc4c(=O)[nH]3)ccc12 | > 100 | > 100 | > 100 | > 100 | > 100 | > 100 | > 100 | > 100 | > 100 |  |  |  |  |  |  |  |  |  |  | 
Cc1ccc(/C=C2\CCCC\C2=N\O)cc1 | > 100 |  | > 100 | > 100 | > 100 |  | > 100 | 30.7 |  | 84 |  |  |  |  |  |  |  |  |  | 
O=C1CCCC1NC(=O)C(F)(F)F (stereo not drawn) |  | > 100 | > 100 | > 100 | > 100 | > 100 | > 100 | > 100 | > 100 | > 100 |  |  |  |  |  |  |  |  |  | 
CC(C)C[C@@H]1NC(=O)[C@@H]2CCCN2C(=O)[C@@H]2CCCN2C(=O)[C@H](CC(C)C)NC(=O)[C@H](CO)NC(=O)[C@H](CCCCN)NC(=O)[C@H]([C@H](C)O)NC(=O)[C@@H]2CCCC[C@@H](NC1=O)C(=O)N[C@@H](Cc1ccccc1)C(=O)N1CCC[C@H]1C(=O)N[C@@H](CC(=O)O)C(=O)NCC(=O)N[C@@H](CCCN=C(N)N)C(=O)N2 | > 50 | > 50 | > 50 | > 50 | > 50 | > 50 | > 50 |  | > 50 | > 50 | > 50 | > 50 | > 50 | > 50 | > 50 | > 50 | > 50 | > 50 | > 50 | 
COc1ccc2c(c1)CC1c3c(cc4c(c3-2)OCO4)CCN1C (stereo not drawn) | > 100 | 57 | 70.4 | 81.5 | 47.6 | > 100 | 30.6 |  | 83.3 | 36.6 |  |  |  |  |  |  |  |  |  | 
C=C(C)[C@H](O)C(O)CC(C)[C@@H]1CCC23CC12CCC1[C@@]2(C)CCC(OC(C)=O)C(C)(C)C2CC(OC2OC(COC(C)=O)C(O)C(O)C2O)[C@]13C (stereo partly drawn) | 12.4 | 11 | 12.8 | 12.7 | 9.4 | 11.3 |  | 5.08 | 14.7 | 14.5 |  |  |  |  |  |  |  |  |  | 
CC12CC3CC(C1)CC(N=[N+]=[N-])(C3)C2 | > 100 | > 100 | > 100 | > 100 | > 100 | > 100 | > 100 |  | > 100 | > 100 |  |  |  |  |  |  |  |  |  | 
CC1/C(=N/Nc2ccc([N+](=O)[O-])cc2)CC2C3(C)CCC2(C(C)C(=O)O)C(=O)C13 (stereo not drawn) | 51.7 | > 100 | > 100 | > 100 | > 100 | > 100 | > 100 |  | > 100 | > 100 | 2.39 | 23.6 | 8.17 | 3.36 | 6.51 | 11.3 | 4.31 | 11.4 | > 100 | 
COc1cc([N+](=O)[O-])c(OC)cc1-c1nc2sc(Cl)cn2c1/C=N/NC(=N)N/N=C/c1c(-c2cc(OC)c([N+](=O)[O-])cc2OC)nc2sc(Cl)cn12 | 3.15 |  |  |  |  | 2.95 | 3.12 |  | 3.28 |  | 1.69 |  |  |  |  | 1.54 |  | 1.66 | 1.61 | 
COC(=O)c1cc2oc(/C=C3\SC(=S)N(NC(C)=O)C3=O)cc2n1Cc1ccccc1 |  | 2.59 | 19.4 | 15.3 | 16.6 | 12.8 | 10.7 | 13.8 |  | > 50 |  | 0.196 | 2.68 | 3.08 | 8.91 | 2.95 | 8.88 | 2.08 |  | 2.14
Clc1nc(Cl)c(Cc2ccccc2)c(Cl)n1 | 66.1 |  | 19 | 33.2 | 16.9 | 66.3 | 8.39 | > 100 | 63.2 | 33.2 |  |  |  |  |  |  |  |  |  | 
N#CN1CCC=C(c2cc3ccccc3[nH]2)C1 | > 448 | 427 | > 448 | > 448 | > 448 | > 448 | > 448 | > 448 | > 448 |  |  |  |  |  |  |  |  |  |  | 
O=C(NCP(=O)(O)O)c1cccnc1 |  | > 100 | > 100 | > 100 | > 100 | > 100 | > 100 | > 100 |  | > 100 |  |  |  |  |  |  |  |  |  | 
COc1ccccc1/C=N/N=C(\N)NO | 29.2 | 65.6 |  | > 100 | 33.7 | > 100 | 25.6 |  | > 100 | > 100 |  |  |  |  |  |  |  |  |  | 
COc1cc([C@@H]2OC(=O)C3C2C(=O)O[C@H]3c2cc(OC)c(OC)c(OC)c2)cc(OC)c1OC (stereo partly drawn) | > 100 | > 100 | > 100 | > 100 | > 100 | > 100 | > 100 | > 100 |  | > 100 |  |  |  |  |  |  |  |  |  | 
CC1SC(=O)SC1C (stereo not drawn) | > 100 |  | > 100 | > 100 |  | > 100 | > 100 | > 100 |  | > 100 |  |  |  |  |  |  |  |  |  | 
CN1CCn2c(c(Sc3ccc(C(=O)NO)cc3)c3ccccc32)C1=O | 3.76 | 3.53 | 6.71 |  | 3.24 | 3.92 | 3.15 | 32 |  | 13.6 | 1.94 | 1.67 | 1.92 |  | 1.44 | 1.85 | 3.1 | 1.7 |  | 3.16
Cc1nn(-c2nc3ccccc3[nH]2)c2c1C(c1ccc3c(c1)OCO3)CC(=O)N2 (stereo not drawn) | > 24.3 | 7.14 | > 100 |  | 3.13 | 5.45 | 3.76 | 7.74 | 6.04 | 8.14 | 3.7 | 2.66 | 3.51 |  | 1.66 | 2.33 | 2.73 | 1.88 | 2.12 | 2.84
COc1cc(-c2oc3c(OC)c(O)c(OC)c(O)c3c(=O)c2OC)ccc1O | > 100 |  | > 100 | > 100 | > 100 | > 100 | > 100 | > 100 | > 100 | 85.2 |  |  |  |  |  |  |  |  |  | 
CC(=O)c1c[nH]cc1CO | > 10 | > 10 | > 10 |  |  | > 10 | > 10 | > 10 | > 10 | > 10 |  |  |  |  |  |  |  |  |  | 
